Data published in patent US6524789B1, “Human neuronal nicotinic acetylcholine receptor compositions and methods employing same” (Merck & Co., Inc., priority 1995, dated 2003).

How the values were obtained:
[1] = system: PC12; test: 86Rb ion-flux assay, positive control cells PC12; format: cell-based; settings: Rattus norvegicus, PC-12, antagonist, 86Rb influx
Experimental: The ^86Rb ion-flux assay is conducted as follows:
1. The night before the experiment, cells are plated at 2×10^6 per well (i.e., 2 ml per well) in a 6-well polylysine-coated plate.
2. The culture medium is decanted and the plate washed with 2 ml of assay buffer (50 mM HEPES, 260 mM sucrose, 5.4 mM KCl, 1.8 mM CaCl2, 0.8 mM MgSO4, 5.5 mM glucose) at room temperature.
3. The assay buffer is decanted and 1 ml of assay buffer, containing 3 μCi/ml ^86Rb, with 5 mM ouabain and agoinist or antagonist in a concentration to effect a maximum response, is added.
4. The plate is incubated on ice at 1° C. for 4 min.
5. The buffer is decanted into a waste container and each well was washed with 3 ml of assay buffer, followed by two washes of 2 ml each.
6. The cells are lysed with 2×0.5 ml of 0.2% SDS per well and transferred to a scintillation vial containing 5 ml of scintillation fluid.
7. The radioactivity contained in each vial 5 is measured and the data calculated.

[2] = system: untransfected HEK cells; settings: fluo-3, 200 μM nicotine
Experimental: HEK cells that are transiently or stably co-transfected with DNA encoding appropriate α and/or β subunits and α6 and β3 subunits are analyzed for expression of functional recombinant nAChR using the automated fluorescent indicator-based assay. The assay procedure is as follows. Untransfected HEK cells and HEK cells co-transfected with DNA encoding the appropriate α and β subunits are plated in the wells of a 96-well microtiter dish and loaded with fluo-3 by incubation for 2 hours at 20° C. in a medium containing 20 μM fluo-3, 0.2% Pluronic F-127 in HBS (125 mM NaCl, 5 mM KCl, 1.8 mM CaCl2, 0.62 mM MgSO4, 6 mM glucose, 20 mM HEPES, pH 7.4). The cells are then washed with assay buffer (i.e., HBS). The antagonist d-tubocurarine is added to some of the wells at a final concentration of 10 μM.

[3] = biological target: T1, functional recombinant nAChR (Homo sapiens, UniProt Q15825); format: cell-based
T1 construct: A 1,743 bp EcoRI fragment, encoding a full-length nAChR α6 subunit, was isolated from KEα6.3; expressed in transfected cells; host or cells: HEK 293 cells, transiently or stably co-transfected
T1 sequence (Q15825 31-494): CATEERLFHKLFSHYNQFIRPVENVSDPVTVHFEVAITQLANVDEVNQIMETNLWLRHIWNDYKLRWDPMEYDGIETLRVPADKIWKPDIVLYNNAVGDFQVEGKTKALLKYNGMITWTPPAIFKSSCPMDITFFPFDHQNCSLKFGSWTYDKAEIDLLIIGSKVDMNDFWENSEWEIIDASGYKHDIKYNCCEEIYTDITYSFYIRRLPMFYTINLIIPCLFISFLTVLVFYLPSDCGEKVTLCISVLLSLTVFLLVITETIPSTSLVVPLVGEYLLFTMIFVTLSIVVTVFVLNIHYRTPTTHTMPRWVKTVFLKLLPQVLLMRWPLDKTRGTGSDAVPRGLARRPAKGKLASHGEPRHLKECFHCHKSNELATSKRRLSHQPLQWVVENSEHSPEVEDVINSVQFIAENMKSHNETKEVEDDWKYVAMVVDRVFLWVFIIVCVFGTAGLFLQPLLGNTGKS
T1 sequence (Q05901 25-458 partner limits assumed): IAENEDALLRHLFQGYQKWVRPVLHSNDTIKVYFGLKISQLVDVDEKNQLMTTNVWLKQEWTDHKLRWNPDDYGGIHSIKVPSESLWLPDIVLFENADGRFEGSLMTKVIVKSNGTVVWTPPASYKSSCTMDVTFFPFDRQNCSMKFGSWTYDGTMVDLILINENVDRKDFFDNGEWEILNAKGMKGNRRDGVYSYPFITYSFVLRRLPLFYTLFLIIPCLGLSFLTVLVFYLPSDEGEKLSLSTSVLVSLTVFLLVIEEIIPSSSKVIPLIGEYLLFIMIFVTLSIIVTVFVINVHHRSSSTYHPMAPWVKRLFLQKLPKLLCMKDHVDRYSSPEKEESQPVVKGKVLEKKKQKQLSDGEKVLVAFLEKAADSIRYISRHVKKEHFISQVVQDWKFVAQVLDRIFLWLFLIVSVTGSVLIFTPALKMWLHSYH
Text: Activation of the ligand-gated nAChR by agonists leads to an influx of cations, including Ca^++, through the receptor channel. Ca^++ entry into the cell through the channel can induce release of calcium contained in intracellular stores. Monovalent cation entry into the cell through the channel can also result in an increase in cytoplasmic Ca^++ levels through depolarization of the membrane and subsequent activation of voltage-dependent calcium channels. Therefore, methods of detecting transient increases in intracellular calcium concentration can be applied to the analysis of functional nicotinic nAChR expression. One method for measuring intracellular calcium levels relies on calcium-sensitive fluorescent indicators.
Calcium-sensitive indicators, such as fluo-3 (Catalog No. F01241, Molecular Probes, Inc., Eugene, Oreg.), are available as acetoxymethyl esters which are membrane permeable. […] Interaction of the free indicator with calcium results in increased fluorescence of the indicator; therefore, an increase in the intracellular Ca^2+ concentration of cells containing the indicator can be expressed directly as an increase in fluorescence.
HEK cells that are transiently or stably co-transfected with DNA encoding appropriate α and/or β subunits and α6 and β3 subunits are analyzed for expression of functional recombinant nAChR using the automated fluorescent indicator-based assay. […]

CN1[C@@H]2CC[C@H]1C[C@@H](OC(=O)C(CO)c1ccccc1)C2 (stereo partly shown) [atropine]
EC50 [1]: 12.5 µM

CN1CCCC1c1cccnc1 (stereo not shown) [nicotine]
fluorescence after addition of nicotine [2]: does not change | fluorescence after addition of nicotine [3]: increases dramatically

COc1cc2c3cc1Oc1cc(ccc1O)C[C@@H]1c4c(cc(OC)c(O)c4Oc4ccc(cc4)C[C@@H]3N(C)CC2)CC[N+]1(C)C [d-tubocurarine]
nicotine-stimulated increase in fluorescence in cells exposed to antagonist ([3]; co-transfected HEK cells, 10 μM d-tubocurarine, 200 μM nicotine): not observed
